Data set [1] can be described thus: duration of activity when administered orally. It counts as in vivo.
In the next data set the test system is hamster. Briefly: luteolytic activity in the hamster after subcutaneous injection. The conditions noted are these: Mesocricetus auratus, sc, according to A. B. Labhsetwar, Nature, vol. 230, page 528 (1971). The class given is in vivo. The protocol:
In this application, the compounds are administered either by intravenous infusion at a dose of approximately 0.01-0.05 μg/kg/minute until the end of labor, or by mouth at a single or multiple doses from about 0.05 mg to about 5 mg pro dose. […] For example, the luteolytic activity of the compound 5c-9α,11α,15(S)-trihydroxy-18,19,20-trinor-17-cyclohexyl-prost-5-en-13-ynoic acid 2-ethoxy-ethyl ester, expressed as ED50 value and evaluated in the hamster after subcutaneous injection [according to A. B. LABHSETWAR, Nature, vol.

Data set [2] can be described thus: orientative acute toxicity, LD50, single oral administration. The following applies: mouse, in vivo, mice, nine hours food deprived, assessed on the seventh day. The protocol:
The evaluation of the toxicity (as orientative acute toxicity, i.e. LD50) was carried out, e.g., as follows: nine hours food deprived mice were treated orally with single administration of increasing doses, then housed and normally fed; the LD50 was assessed on the seventh day after the treatment.

For the compound `CCOCCOC(=O)CCC/C=C\C[C@@H]1[C@@H](C#C[C@@H](O)CC2CCCCC2)[C@H](O)C[C@@H]1O` [5c-9α,11α,15(S)-trihydroxy-17,18,19,20-tetranor-16-cyclohexyl-prost-5-en-13-ynoic acid 2-ethoxy-ethyl ester], the “activity duration compared with the parent acid or alkyl ester derivatives” value in data set [1] is given as “more lasting activity”.
One may read the ED50 as the midpoint of the dose-response relation. As to `CCOCCOC(=O)CCC/C=C\C[C@@H]1[C@@H](C#C[C@@H](O)CCC2CCCCC2)[C@H](O)C[C@@H]1O` [5c-9α,11α,15(S)-trihydroxy-18,19,20-trinor-17-cyclohexyl-prost-5-en-13-ynoic acid 2-ethoxy-ethyl ester], it took a dose of 0.005 mg/kg to reach the 50% effect level with hamster (ED50).
`COC(=O)CCC/C=C\C[C@@H]1[C@@H](C#C[C@@H](O)CCC2CCCCC2)[C@H](O)C[C@@H]1O` [5c-9α,11α,15(S)-trihydroxy-18,19,20-trinor-17-cyclohexyl-prost-5-en-13-ynoic acid methyl ester, reference compound] showed an ED50 with hamster of 0.009 mg/kg.
What is called LD50 is the dose at which mortality reaches 50%. A lower LD50 goes with greater toxicity. `CCOCCOC(=O)CCC/C=C\C[C@@H]1[C@@H](C#C[C@@H](O)CCCCC2CCCCC2)[C@H](O)C[C@@H]1O` [5c-9α,11α,15(S)-trihydroxy-20-nor-19-cyclohexyl-prost-5-en-13-ynoic acid 2-ethoxy-ethyl ester]: the LD50 at 168 h in data set [2] was greater than 3000 mg/kg. In addition, the “activity duration compared with the parent acid or alkyl ester derivatives” value in data set [1] is “more lasting activity”.

Values taken from patent US4543353A, “Ester and amide derivatives of 13,14-didehydro prostaglandins” (Farmitalia Carlo Erba S.p.A., priority 1981, dated 1985).
